Calls of active or inactive are those of the source. No cut-off for these calls is given here.
Tests used:
MCF7 [1] = experiment: Cell cycle arrest in human MCF7 cells assessed as accumulation at G0/G1 phase at 8 uM after 24 hrs by propidium iodide staining-based flow cytometry (reference value: 64.68 to 80.32%); assay type: functional
MCF7 [2] = experiment: Cell cycle arrest in human MCF7 cells assessed as accumulation at S phase at 2 uM after 24 hrs by propidium iodide staining-based flow cytometry (reference value: 15.95 to 25.74%); assay type: functional
MCF7 [3] = experiment: Cell cycle arrest in human MCF7 cells assessed as accumulation at S phase at 4 uM after 24 hrs by propidium iodide staining-based flow cytometry (reference value: 15.95 to 25.74%); assay type: functional
MCF7 [4] = experiment: Cell cycle arrest in human MCF7 cells assessed as accumulation at S phase at 8 uM after 24 hrs by propidium iodide staining-based flow cytometry (reference value: 15.95 to 25.74%); assay type: functional
MCF7 [5] = experiment: Cell cycle arrest in human MCF7 cells assessed as accumulation at G2/M phase at 2 uM after 24 hrs by propidium iodide staining-based flow cytometry (reference value: 3.73 to 10.75%); assay type: functional
MCF7 [6] = experiment: Cell cycle arrest in human MCF7 cells assessed as accumulation at G2/M phase at 4 uM after 24 hrs by propidium iodide staining-based flow cytometry (reference value: 3.73 to 10.75%); assay type: functional
MCF7 [7] = experiment: Cell cycle arrest in human MCF7 cells assessed as accumulation at G2/M phase at 8 uM after 24 hrs by propidium iodide staining-based flow cytometry (reference value: 3.73 to 10.75%); assay type: functional
MCF7 [8] = experiment: Cytotoxicity against human MCF7 cells after 36 hrs by MTT assay; assay type: functional, cell-based; conditions: MCF7, 36 h
A549 = experiment: Cytotoxicity against human A549 cells after 36 hrs by MTT assay; assay type: functional, cell-based; conditions: A549, 36 h
HeLa = experiment: Cytotoxicity against human HeLa cells after 36 hrs by MTT assay; assay type: functional, cell-based
[9] = Cytotoxicity against HEK293T cells after 36 hrs by MTT assay; assay type: cell-based; conditions: Homo sapiens, HEK-293T
MCF7 [10] = experiment: Induction of apoptosis in human MCF7 cells after 24 hrs by Annexin V-FITC/propidium iodide staining-based flow cytometry; assay type: functional, cell-based
MCF7 [11] = experiment: Induction of apoptosis in human MCF7 cells assessed as necrotic cells at 1 uM after 24 hrs by Annexin V-FITC/propidium iodide staining-based flow cytometry (reference value: 0.021 to 3.8%); assay type: functional
MCF7 [12] = experiment: Induction of apoptosis in human MCF7 cells assessed as necrotic cells at 2 uM after 24 hrs by Annexin V-FITC/propidium iodide staining-based flow cytometry (reference value: 0.021 to 3.8%); assay type: functional
MCF7 [13] = experiment: Induction of apoptosis in human MCF7 cells assessed as necrotic cells at 4 uM after 24 hrs by Annexin V-FITC/propidium iodide staining-based flow cytometry (reference value: 0.021 to 3.8%); assay type: functional
MCF7 [14] = experiment: Induction of apoptosis in human MCF7 cells assessed as necrotic cells at 8 uM after 24 hrs by Annexin V-FITC/propidium iodide staining-based flow cytometry (reference value: 0.021 to 3.8%); assay type: functional
MCF7 [15] = experiment: Induction of apoptosis in human MCF7 cells assessed as late apoptotic cells at 1 uM after 24 hrs by Annexin V-FITC/propidium iodide staining-based flow cytometry (reference value: 5.92 to 9.33%); assay type: functional
MCF7 [16] = experiment: Cell cycle arrest in human MCF7 cells assessed as accumulation at G0/G1 phase at 2 uM after 24 hrs by propidium iodide staining-based flow cytometry (reference value: 64.68 to 80.32%); assay type: functional
MCF7 [17] = experiment: Cell cycle arrest in human MCF7 cells assessed as accumulation at G0/G1 phase at 4 uM after 24 hrs by propidium iodide staining-based flow cytometry (reference value: 64.68 to 80.32%); assay type: functional
MCF7 [18] = experiment: Induction of apoptosis in human MCF7 cells assessed as late apoptotic cells at 2 uM after 24 hrs by Annexin V-FITC/propidium iodide staining-based flow cytometry (reference value: 5.92 to 9.33%); assay type: functional
MCF7 [19] = experiment: Induction of apoptosis in human MCF7 cells assessed as late apoptotic cells at 4 uM after 24 hrs by Annexin V-FITC/propidium iodide staining-based flow cytometry (reference value: 5.92 to 9.33%); assay type: functional
MCF7 [20] = experiment: Induction of apoptosis in human MCF7 cells assessed as late apoptotic cells at 8 uM after 24 hrs by Annexin V-FITC/propidium iodide staining-based flow cytometry (reference value: 5.92 to 9.33%); assay type: functional
MCF7 [21] = experiment: Induction of apoptosis in human MCF7 cells assessed as early apoptotic cells at 1 uM after 24 hrs by Annexin V-FITC/propidium iodide staining-based flow cytometry (reference value: 2.45 to 6.92%); assay type: functional
MCF7 [22] = experiment: Induction of apoptosis in human MCF7 cells assessed as early apoptotic cells at 2 uM after 24 hrs by Annexin V-FITC/propidium iodide staining-based flow cytometry (reference value: 2.45 to 6.92%); assay type: functional
MCF7 [23] = experiment: Induction of apoptosis in human MCF7 cells assessed as early apoptotic cells at 4 uM after 24 hrs by Annexin V-FITC/propidium iodide staining-based flow cytometry (reference value: 2.45 to 6.92%); assay type: functional
MCF7 [24] = experiment: Induction of apoptosis in human MCF7 cells assessed as early apoptotic cells at 8 uM after 24 hrs by Annexin V-FITC/propidium iodide staining-based flow cytometry (reference value: 2.45 to 6.92%); assay type: functional
MCF7 [25] = experiment: Induction of apoptosis in human MCF7 cells assessed as viable cells at 1 uM after 24 hrs by Annexin V-FITC/propidium iodide staining-based flow cytometry (reference value: 80 to 91.6%); assay type: functional; conditions: MCF7, 24 h, read-out: Activity
MCF7 [26] = experiment: Induction of apoptosis in human MCF7 cells assessed as viable cells at 2 uM after 24 hrs by Annexin V-FITC/propidium iodide staining-based flow cytometry (reference value: 80 to 91.6%); assay type: functional; conditions: MCF7, 24 h, read-out: Activity
MCF7 [27] = experiment: Induction of apoptosis in human MCF7 cells assessed as viable cells at 4 uM after 24 hrs by Annexin V-FITC/propidium iodide staining-based flow cytometry (reference value: 80 to 91.6%); assay type: functional; conditions: MCF7, 24 h, read-out: Activity
MCF7 [28] = experiment: Induction of apoptosis in human MCF7 cells assessed as viable cells at 8 uM after 24 hrs by Annexin V-FITC/propidium iodide staining-based flow cytometry (reference value: 80 to 91.6%); assay type: functional; conditions: MCF7, 24 h, read-out: Activity
MCF7 [29] = experiment: Upregulation of CDK1 in human MCF7 cells at 2 to 8 uM after 24 hrs by Western blot analysis; assay type: functional, cell-based
MCF7 [30] = experiment: Downregulation of cyclin B1 in human MCF7 cells at 2 to 8 uM after 24 hrs by Western blot analysis; assay type: functional, cell-based
MCF7 [31] = experiment: Induction of apoptosis in human MCF7 cells assessed as increase in PARP cleavage at 8 uM after 24 hrs by Western blot analysis; assay type: functional, cell-based
Tubulin (Homo sapiens) [32] = target: T1, Tubulin (Homo sapiens) (UniProt P68371+Q9H4B7+P0DPH7+P68366+Q13509+Q71U36+P04350+Q3ZCM7+P07437+P68363+Q9BQE3+Q6PEY2+Q13885+Q9BVA1+Q9BUF5); experiment: Inhibition of tubulin polymerization in human MCF7 cells assessed as alteration of interphase microtubule network at 4 uM after 24 hrs by DAPI staining-based confocal microscopic analysis; assay type: cell-based
Tubulin (Homo sapiens) [33] = target: T1, Tubulin (Homo sapiens); experiment: Inhibition of tubulin polymerization in human MCF7 cells assessed as alteration of interphase microtubule network at 2 uM after 24 hrs by DAPI staining-based confocal microscopic analysis; assay type: cell-based

| SMILES | Activity (MCF7 [1]) | Activity (MCF7 [2]) | Activity (MCF7 [3]) | Activity (MCF7 [4]) | Activity (MCF7 [5]) | Activity (MCF7 [6]) | Activity (MCF7 [7]) | IC50 (MCF7 [8]) | IC50 (A549) | IC50 (HeLa) | IC50 [9] | Activity (MCF7 [11]) | Activity (MCF7 [12]) | Activity (MCF7 [13]) | Activity (MCF7 [14]) | Activity (MCF7 [15]) | Activity (MCF7 [16]) | Activity (MCF7 [17]) | Activity (MCF7 [18]) | Activity (MCF7 [19]) | also measured |
| --- | --- | --- | --- | --- | --- | --- | --- | --- | --- | --- | --- | --- | --- | --- | --- | --- | --- | --- | --- | --- | --- |
| COc1cc(C2c3cc4c(cc3[C@H](OC(=O)C(Cc3ccccc3)N3C(=O)C5C6CCC(O6)C5C3=O)[C@H]3COC(=O)[C@H]23)OCO4)cc(OC)c1OC (stereo partly drawn) | 8.17% | 45.05% | 43.82% | 32.22% | 32.33% | 38.94% | 59.61% | 0.88 µM | 7.82 µM | 3.21 µM | 54.4 µM | 0.021% | 0% | 0.03% | 0.022% | 14.2% | 22.62% | 17.24% | 4.51% | 6.15% | Activity (MCF7 [10]): Dose-dependent effect; Activity (MCF7 [20]): 6.97%; Activity (MCF7 [21]): 50.3%; Activity (MCF7 [22]): 80.1%; Activity (MCF7 [23]): 73.1%; Activity (MCF7 [24]): 61.9%; viability at 1 µM (MCF7 [25]): 35.4%; viability at 2 µM (MCF7 [26]): 15.4%; viability at 4 µM (MCF7 [27]): 20.7%; viability at 8 µM (MCF7 [28]): 31.1%; Activity (MCF7 [29]): inactive; Activity (MCF7 [30]): Active; Activity (MCF7 [31]): Active; inhibition (Tubulin (Homo sapiens) [32]): Active |
| O=C1OC(=O)C2C3CCC(O3)C12 (stereo not drawn) | 31.77% | 42.95% | 47.21% | 45.68% | 15.64% | 16.7% | 22.55% | 12.1 µM | 15.7 µM | 9.03 µM | 9.81 µM | 5.89% | 4.21% | 11.6% | 14.2% | 14.5% | 41.61% | 36.09% | 20.8% | 22% | Activity (MCF7 [20]): 41.3%; Activity (MCF7 [21]): 5.68%; Activity (MCF7 [22]): 6.04%; Activity (MCF7 [23]): 8.3%; Activity (MCF7 [24]): 11%; viability at 1 µM (MCF7 [25]): 74%; viability at 2 µM (MCF7 [26]): 69%; viability at 4 µM (MCF7 [27]): 58.1%; viability at 8 µM (MCF7 [28]): 33.5% |
| COc1cc([C@@H]2c3cc4c(cc3[C@H](O)[C@H]3COC(=O)[C@H]23)OCO4)cc(OC)c1OC [PODOFILOX] | 27.1% | 53.55% | 19.36% | 57.7% | 11.97% | 12.77% | 15.2% | 1.11 µM | 1.36 µM | 1.45 µM | 1.54 µM | 0.037% | 0.021% | 0.032% | 0.042% | 4.34% | 34.48% | 67.87% | 6.26% | 3.57% | Activity (MCF7 [20]): 4.97%; Activity (MCF7 [21]): 2.33%; Activity (MCF7 [22]): 2.95%; Activity (MCF7 [23]): 3.35%; Activity (MCF7 [24]): 3.24%; viability at 1 µM (MCF7 [25]): 93.3%; viability at 2 µM (MCF7 [26]): 90.8%; viability at 4 µM (MCF7 [27]): 93.1%; viability at 8 µM (MCF7 [28]): 91.8% |
| CC(=O)O[C@H]1C(=O)[C@@]2(C)[C@H]([C@H](OC(=O)c3ccccc3)[C@]3(O)C[C@H](OC(=O)[C@H](O)[C@@H](NC(=O)c4ccccc4)c4ccccc4)C(C)=C1C3(C)C)[C@]1(OC(C)=O)CO[C@@H]1C[C@@H]2O |  |  |  |  |  |  |  |  |  |  |  |  |  |  |  |  |  |  |  |  | inhibition (Tubulin (Homo sapiens) [33]): inactive |

Reference: ChEMBL document CHEMBL3813683, “Design, synthesis and anti-cancer activity evaluation of podophyllotoxin-norcantharidin hybrid drugs” (Bioorg Med Chem Lett, 2016)
